In patent US10021881B2, “Vaporized administration of pesticides” (priority 2016, dated 2018):

Key:
Penicillium expansum [1] = assay: Drenching vs. vaporizing treatments of apples, browning; format: in vivo; details: for Percent (%) Inhibition of Internal Browning: apples stored nine weeks at 1° C.
Method: An in vivo assay was used to evaluate the ability of vaporized pyrimethanil to control pathogenic infection of apples by Penicillium expansum as compared to drenching methods of apple treatment. Vaporized treatments of apples were performed as previous described in Examples 1-6, with the exception of using a 1 m wide×1 m high×8 m deep tunnel (see FIG. 11). […] In addition, drenching treatments comprising a final concentration of 125 mg/L, 500 mg/L, and 2000 mg/L of pyrimethanil active ingredient were also prepared. Fruits were stored for nine weeks at 1° C., and evaluated in order to observe and/or determine the area of browning on the fruit (see FIG. 22) and the percent of browning inhibition (see Table 7).

[2] = format: physicochemical
Method: This example relates to experiments performed to determine if degradation of pyrimethanil technical compounds observed at high temperatures was due to evaporation. In the present example, seven milligrams (7 mg) of pyrimethanil compounds 1 and 2 were analyzed in air by Thermo Gravity Analysis-Mass Spectrometry (TGA-MS). The pyrimethanil samples were loaded onto a TGA platinum pan of the Q5000 TGA instrument (TA instruments) and using standard TGA test methods as follows: select gas 2 (air), data storage on, ramp at 5° C. per minute to 100° C., isothermal for 180 mins, data storage off, equilibrate at 60° C., and end method. An isothermal method was also performed according to standard methods.
The TGA furnace was closed and purged with helium, then heated from room temperature to about 300° C. at 10° C. per minute. […] An isothermal method was also performed according to standard methods.

[3] = Agriphar Pyrimethanil (ISO) Safety Data Sheet; cited from earlier work
Fusarium sambucinum = assay: In vitro assay of vaporized pyrimethanil to inhibit pathogenic fungal growth (agar plates); format: cell-based; details: F. sambucinum, 3 days at 23° C.
Method: (§1) An in vitro assay was used to evaluate the ability of pyrimethanil to vaporize in order to control the infection of various pathogenic microorganisms when applied to the plants and plant parts. For in vitro experiments, a 12-well microtiter plate, 6-well, or a 10-cm Petri plates each containing 7.5 ml, 16.5 or 22 ml volumes, respectively, of half strength Potato Dextrose Agar (PDA) were prepared. Each well or plate was inoculated with 1 microliter (μL) of 1×10^5 spores/ml of the appropriate pathogenic spore suspension (e.g., Botrytis cinerea, Penicillium expansum, Glomerella cingulata, Penicillium digitatum, Aspergillus flavus, Colletotrichum acutatum, Fusarium sambucinum, and Geotrichum candidum) by spotting the pathogen on the center of the agar well or plate. The inoculated microtiter or Petri plate was then sealed with a breathable film. One set of triplicate plates for each pathogen was placed inside the bottom of an air-tight 36-L desiccator chamber and closed with secure clamps.
(§2) Evaporation of the acetone left behind solid crystals of pyrimethanil.
(§3) The tube of the device was attached to a port on the side of the chamber that allowed airflow of the pyrimethanil vapor into the chamber. The chamber was at room temperature during administration of the pyrimethanil. The chambers were then incubated for three (3) days at 23° C. After incubation, post-treatment growth inhibition of each in vitro pathogen was measured on the inoculated plates and compared to control samples.

Glomerella cingulata = assay: as above; format: cell-based; details: G. cingulata, 3 days at 23° C.
Method: as §1, §2, §3

Geotrichum candidum = assay: as above; format: cell-based; details: G. candidum, 3 days at 23° C.
Method: as §1, §2, §3

Colletotrichum acutatum = assay: as above; format: cell-based; details: C. acutatum, 3 days at 23° C.
Method: as §1, §2, §3

Aspergillus flavus = assay: as above; format: cell-based; details: A. flavus, 3 days at 23° C.
Method: as §1, §2, §3

Botrytis cinerea [4] = assay: as above; format: cell-based; details: B. cinerea, 3 days at 23° C.
Method: as §1, §2, §3

Penicillium digitatum = assay: as above; format: cell-based; details: P. digitatum, 3 days at 23° C.
Method: as §1, §2, §3

Penicillium expansum [5] = assay: as above; format: cell-based; details: P. expansum, 3 days at 23° C.
Method: as §1, §2, §3

Botrytis cinerea [6] = assay: In vivo assay of vaporized pyrimethanil to inhibit Botrytis cinerea in strawberries; details: for Gray Mold Severity (0-4): scale 0 no disease to 4 exceptionally high
Method: Eight strawberries (per repetition, in triplicate) were placed in an industry standard clamshell with the stem facing down. […] Clamshells were then placed at the bottom of a 36-L acrylic desiccator chamber in triplicate.
An appropriate amount of pyrimethanil to achieve a final headspace concentration of 1 mg/L, 0.3 mg/L, 0.1 mg/L, or 0.03 mg/L was dissolved in acetone and 100 μL of the solution was pipetted into a small glass tube. This tube was then placed inside a preheated vaporization device (0.5″ OD by 6″ long thermostatically heated copper tube mounted to a 0.5 L/min low flow fan) set at 60° C. for 1 minute to allow the acetone to evaporate, leaving behind the solid crystals of pyrimethanil.
Pyrimethanil was then introduced into the cabinets of the chamber through the bulkhead port by using the vaporization device as described in Example 1 set at 180° C. The chambers were then incubated at 21° C. for three (3) days. After incubation, fruits were evaluated daily for an additional 3 days at 21° C. Fruits were evaluated in order to observe percentage of disease incidence (%) and severity of disease. Disease severity was rated on a scale ranging from 0 to 4, where “0” indicated no disease severity, “1” indicated minimal disease severity, “2” indicated medium disease severity, “3” indicated high disease severity, and “4” indicated exceptionally high disease severity.

[7] = 0.03 mg/L, Day 0 (after 3 days at 21° C.)
[8] = 0.03 mg/L, Day 1 (after 3 days at 21° C.)
[9] = 0.03 mg/L, Day 2 (after 3 days at 21° C.)
[10] = 0.03 mg/L, Day 3 (after 3 days at 21° C.)
[11] = 0.1 mg/L, Day 0 (after 3 days at 21° C.)
[12] = 0.1 mg/L, Day 1 (after 3 days at 21° C.)
[13] = 0.1 mg/L, Day 2 (after 3 days at 21° C.)
[14] = 0.1 mg/L, Day 3 (after 3 days at 21° C.)
[15] = 0.3 mg/L, Day 0 (after 3 days at 21° C.)
[16] = 0.3 mg/L, Day 1 (after 3 days at 21° C.)
[17] = 0.3 mg/L, Day 2 (after 3 days at 21° C.)
[18] = 0.3 mg/L, Day 3 (after 3 days at 21° C.)
[19] = 1 mg/L, Day 0 (after 3 days at 21° C.)
[20] = 1 mg/L, Day 1 (after 3 days at 21° C.)
[21] = 1 mg/L, Day 2 (after 3 days at 21° C.)
[22] = 1 mg/L, Day 3 (after 3 days at 21° C.)

Compound: Cc1cc(C)nc(Nc2ccccc2)n1 [pyrimethanil, 4,6-Dimethyl-N-phenylpyrimidin-2-amine]
- Percent (%) Inhibition of Internal Browning (Penicillium expansum [1]; DRENCH, Treatment Rate 500 mg/L): 47%
- Percent (%) Inhibition of Internal Browning (Penicillium expansum [1]; DRENCH, Treatment Rate 2,000 mg/L): 69%
- Percent (%) Inhibition of Internal Browning (Penicillium expansum [1]; VAPOR, Treatment Rate 0.5 mg/L): 96%
- Percent (%) Inhibition of Internal Browning (Penicillium expansum [1]; VAPOR, Treatment Rate 2 mg/L): 100%
- area of browning, vaporized compared with drenched (Penicillium expansum [1]; apples treated in a preventative manner, nine weeks at 1° C., FIG. 22): less area (mm) of browning
- thermal degradation [2]: no thermal degradation
- known thermal decomposition range [3]: 189.54-344.74 °C
- Mycelial Growth Inhibition (%) (Fusarium sambucinum; 0.1 mg/L headspace): 58.3%
- Mycelial Growth Inhibition (%) (Fusarium sambucinum; 0.3 mg/L headspace): 89.4%
- Mycelial Growth Inhibition (%) (Fusarium sambucinum; 1 mg/L headspace): 92.2%
- Mycelial Growth Inhibition (%) (Glomerella cingulata; 0.1 mg/L headspace): 31.5%
- Mycelial Growth Inhibition (%) (Glomerella cingulata; 0.3 mg/L headspace): 62.1%
- Mycelial Growth Inhibition (%) (Glomerella cingulata; 1 mg/L headspace): 77.3%
- Mycelial Growth Inhibition (%) (Geotrichum candidum; 0.1 mg/L headspace): 57.8%
- Mycelial Growth Inhibition (%) (Geotrichum candidum; 0.3 mg/L headspace): 73.1%
- Mycelial Growth Inhibition (%) (Geotrichum candidum; 1 mg/L headspace): 75.2%
- Mycelial Growth Inhibition (%) (Colletotrichum acutatum; 0.1 mg/L headspace): 100.0%
- Mycelial Growth Inhibition (%) (Colletotrichum acutatum; 0.3 mg/L headspace): 90.0%
- Mycelial Growth Inhibition (%) (Colletotrichum acutatum; 1 mg/L headspace): 89.7%
- Mycelial Growth Inhibition (%) (Aspergillus flavus; 0.1 mg/L headspace): 100.0%
- Mycelial Growth Inhibition (%) (Aspergillus flavus; 0.3 mg/L headspace): 100.0%
- Mycelial Growth Inhibition (%) (Aspergillus flavus; 1 mg/L headspace): 100.0%
- Mycelial Growth Inhibition (%) (Botrytis cinerea [4]; 0.1 mg/L headspace): 91.9%
- Mycelial Growth Inhibition (%) (Botrytis cinerea [4]; 0.3 mg/L headspace): 92.1%
- Mycelial Growth Inhibition (%) (Botrytis cinerea [4]; 1 mg/L headspace): 95.2%
- Mycelial Growth Inhibition (%) (Penicillium digitatum; 0.1 mg/L headspace): 100.0%
- Mycelial Growth Inhibition (%) (Penicillium digitatum; 0.3 mg/L headspace): 100.0%
- Mycelial Growth Inhibition (%) (Penicillium digitatum; 1 mg/L headspace): 100.0%
- Mycelial Growth Inhibition (%) (Penicillium expansum [5]; 0.1 mg/L headspace): 92.4%
- Mycelial Growth Inhibition (%) (Penicillium expansum [5]; 0.3 mg/L headspace): 100.0%
- Mycelial Growth Inhibition (%) (Penicillium expansum [5]; 1 mg/L headspace): 100.0%
- Gray Mold Incidence (%) (Botrytis cinerea [6]; [7]): 79.2%
- Gray Mold Severity (0-4) (Botrytis cinerea [6]; [7]): 0.8
- Gray Mold Incidence (%) (Botrytis cinerea [6]; [8]): 87.5%
- Gray Mold Severity (0-4) (Botrytis cinerea [6]; [8]): 1.3
- Gray Mold Incidence (%) (Botrytis cinerea [6]; [9]): 91.7%
- Gray Mold Severity (0-4) (Botrytis cinerea [6]; [9]): 1.7
- Gray Mold Incidence (%) (Botrytis cinerea [6]; [10]): 100.0%
- Gray Mold Severity (0-4) (Botrytis cinerea [6]; [10]): 2.1
- Gray Mold Incidence (%) (Botrytis cinerea [6]; [11]): 70.8%
- Gray Mold Severity (0-4) (Botrytis cinerea [6]; [11]): 0.6
- Gray Mold Incidence (%) (Botrytis cinerea [6]; [12]): 79.2%
- Gray Mold Severity (0-4) (Botrytis cinerea [6]; [12]): 0.8
- Gray Mold Incidence (%) (Botrytis cinerea [6]; [13]): 83.3%
- Gray Mold Severity (0-4) (Botrytis cinerea [6]; [13]): 1.2
- Gray Mold Incidence (%) (Botrytis cinerea [6]; [14]): 100.0%
- Gray Mold Severity (0-4) (Botrytis cinerea [6]; [14]): 1.7
- Gray Mold Incidence (%) (Botrytis cinerea [6]; [15]): 66.7%
- Gray Mold Severity (0-4) (Botrytis cinerea [6]; [15]): 0.4
- Gray Mold Incidence (%) (Botrytis cinerea [6]; [16]): 75.0%
- Gray Mold Severity (0-4) (Botrytis cinerea [6]; [16]): 0.5
- Gray Mold Incidence (%) (Botrytis cinerea [6]; [17]): 73.8%
- Gray Mold Severity (0-4) (Botrytis cinerea [6]; [17]): 0.8
- Gray Mold Incidence (%) (Botrytis cinerea [6]; [18]): 95.8%
- Gray Mold Severity (0-4) (Botrytis cinerea [6]; [18]): 1.1
- Gray Mold Incidence (%) (Botrytis cinerea [6]; [19]): 66.7%
- Gray Mold Severity (0-4) (Botrytis cinerea [6]; [19]): 0.3
- Gray Mold Incidence (%) (Botrytis cinerea [6]; [20]): 70.8%
- Gray Mold Severity (0-4) (Botrytis cinerea [6]; [20]): 0.4
- Gray Mold Incidence (%) (Botrytis cinerea [6]; [21]): 69.6%
- Gray Mold Severity (0-4) (Botrytis cinerea [6]; [21]): 0.6
- Gray Mold Incidence (%) (Botrytis cinerea [6]; [22]): 91.7%
- Gray Mold Severity (0-4) (Botrytis cinerea [6]; [22]): 1.0
